The source of these data is patent publication US12110288B2, “MASP-2 inhibitors and methods of use” (Omeros Corporation, priority 2019, dated 2024).

Molecules are shown by their SMILES. Where a name gives a salt, the structure may show the parent alone.

The experiment concerns the target T1, MASP-2 (CCP1-CCP2-SP) (Homo sapiens, UniProt O00187).
T1 construct: 15 μL of Enzyme MASP-2 (CCP1-CCP2-SP) in Assay Buffer
As to the kind of experiment: Enzymatic Assay for MASP-2. In kind it is biochemical. The settings on record: fluorogenic substrate based on C2 cleavage site, room temperature, 20 mM HEPES pH 7.4. In short, it runs like this:
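Fluorogenic substrate modelled on the C2 cleavage site, run at room temperature in 20 mM HEPES pH 7.4, 140 mM NaCl, 0.1% Tween 20; compounds were added from DMSO serial dilutions before enzyme and substrate. Reactions ran 20 min and were stopped with 0.1 M acetic acid before fluorescence was read. % activity was normalised to DMSO-only and no-enzyme controls; IC50 was taken as Ki, with tight- or slow-binding inhibitors handled separately.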

T1 sequence (O00187 445-686 limits assumed): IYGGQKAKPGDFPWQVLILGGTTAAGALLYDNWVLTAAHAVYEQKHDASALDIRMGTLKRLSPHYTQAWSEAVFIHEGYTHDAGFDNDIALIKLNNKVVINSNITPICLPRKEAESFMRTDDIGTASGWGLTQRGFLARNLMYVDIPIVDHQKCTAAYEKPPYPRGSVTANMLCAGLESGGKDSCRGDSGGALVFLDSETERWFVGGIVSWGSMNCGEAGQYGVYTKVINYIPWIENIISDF
T1 sequence (O00187 298-444 partner limits assumed): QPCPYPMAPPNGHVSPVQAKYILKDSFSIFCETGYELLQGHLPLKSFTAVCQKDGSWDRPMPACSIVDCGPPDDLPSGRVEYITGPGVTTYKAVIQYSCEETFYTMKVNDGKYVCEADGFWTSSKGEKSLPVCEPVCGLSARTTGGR

For `COC(=O)[C@H](Cc1ccc(O)cc1)Nc1ncc(-c2ccccc2)n(CC(=O)NCc2cc3cnccc3[nH]2)c1=O` [Compound 163, Methyl (4-(2-(((1H-pyrrolo[3,2-c]pyridin-2-yl)methyl)amino)-2-oxoethyl)-3-oxo-5-phenyl-3,4-dihydropyrazin-2-yl)-L-tyrosinate trifluoroacetate], the Ki (usually a measure of affinity in units of concentration, obtained from inhibition or displacement) is less than 0.5 µM.
As to `N#Cc1cccc(-c2cnc(NCCc3ccccc3)c(=O)n2CC(=O)NCc2ccc3nc(N)[nH]c3c2)c1` [Compound 14, N-((2-Amino-1H-benzo[d]imidazol-6-yl)methyl)-2-(6-(3-cyanopheny1)-2-oxo-3-(phenethylamino)pyrazin-1(2H)-yl)acetamide], the Ki is less than 0.5 µM.
As to `Cn1c(CNC(=O)Cn2c(-c3ccccc3)cnc(NCCc3ccccc3)c2=O)cc2cnccc21` [Compound 46, N-((1-Methyl-1H-Pyrrolo[3,2-c]Pyridin-2-yl)Methyl)-2-(2-Oxo-3-(Phenethylamino)-6-Phenylpyrazin-1(2H)-yl)Acetamide Trifluoroacetate], the Ki is less than 0.5 µM.
With `Cn1cc(-c2cnc(NCCc3ccccc3)c(=O)n2CC(=O)NCc2cc3cnccc3[nH]2)cn1` [Compound 101, N-((1H-Pyrrolo[3,2-c]pyridin-2-yl)methyl)-2-(6-(1-methyl-1H-pyrazol-4-yl)-2-oxo-3-(phenethylamino)pyrazin-1(2H)-yl)acetamide] the figure was less than 0.5 µM.
`O=C(Cn1c(-c2ccccc2)cnc(NC2(c3ccccc3)COC2)c1=O)NCc1cc2cnccc2[nH]1` [Compound 51, N-((1H-Pyrrolo[3,2-c]pyridin-2-yl)methyl)-2-(2-oxo-6-phenyl-3-((3-phenyloxetan-3-yl)amino)pyrazin-1(2H)-yl)acetamide trifluoroacetate] came in with a Ki of less than 0.5 µM.
With `O=C(Cn1c(-c2ccccc2)cnc(NCc2ccc(F)c(F)c2)c1=O)NCc1cc2cnccc2[nH]1` [Compound 70, N-((1H-Pyrrolo[3,2-c]pyridin-2-yl)methyl)-2-(3-((3,4-difluorobenzyl)amino)-2-oxo-6-phenylpyrazin-1(2H)-yl)acetamide trifluoroacetate] the figure was less than 0.5 µM.
As for `O=C(Cn1c(-c2ccccc2)cnc(NC2(c3ccccc3)CC2)c1=O)NCc1cc2cnccc2[nH]1` [Compound 66, N-((1H-Pyrrolo[3,2-c]pyridin-2-yl)methyl)-2-(2-oxo-6-phenyl-3-((1-phenylcyclopropyl)amino)pyrazin-1(2H)-yl)acetamide trifluoroacetate], the inhibition constant (Ki) is less than 0.5 µM.
Molecule `O=C(Cn1c(-c2ccccc2)cnc(NCC2(c3cccc(F)c3)CC2)c1=O)NCc1cc2cnccc2[nH]1` [Compound 64, N-((1H-Pyrrolo[3,2-c]pyridin-2-yl)methyl)-2-(3-(((1-(3-fluorophenyl)cyclopropyl)methyl)amino)-2-oxo-6-phenylpyrazin-1(2H)-yl)acetamide] displayed a Ki of less than 0.5 µM.
With `CC(O)c1cccc(-c2cnc(NCCc3ccccc3)c(=O)n2CC(=O)NCc2cc3cnccc3[nH]2)c1` (stereo not shown) [Compound 100, N-((1H-Pyrrolo[3,2-c]Pyridin-2-yl)Methyl)-2-(6-(3-(1-Hydroxyethyl)Phenyl)-2-Oxo-3-(Phenethylamino)Pyrazin-1(2H)-yl)Acetamide] the figure was less than 0.5 µM.
Take `Cc1nc(N)ccc1CNC(=O)Cn1c(-c2ccc(CO)cc2)cnc(NCCc2ccccc2)c1=O` [Compound 33]: the inhibition constant Ki was less than 0.5 µM.
With `Cc1cc2[nH]c(CNC(=O)Cn3c(-c4ccccc4)cnc(NCCc4ccccc4)c3=O)cc2cn1` [Compound 67, N-((6-Methyl-1H-Pyrrolo[3,2-c]Pyridin-2-yl)Methyl)-2-(2-Oxo-3-(Phenethylamino)-6-Phenylpyrazin-1(2H)-yl)Acetamide Trifluoroacetate] the figure was less than 0.5 µM; with `O=C(Cn1c(-c2ccccc2)cnc(NCc2cccc(F)c2)c1=O)NCc1cc2cnccc2[nH]1` [Compound 151, N-((1H-Pyrrolo[3,2-c]pyridin-2-yl)methyl)-2-(3-((3-fluorobenzyl)amino)-2-oxo-6-phenylpyrazin-1(2H)-yl)acetamide], less than 0.5 µM; with `Cc1nc(N)ccc1CNC(=O)Cn1c(-c2ccnc(N)c2)cnc(NCCc2ccccc2)c1=O` [Compound 84, N-((6-Amino-2-Methylpyridin-3-yl)Methyl)-2-(6-(2-Aminopyridin-4-yl)-2-Oxo-3-(Phenethylamino)Pyrazin-1(2H)-yl)Acetamide], less than 0.5 µM.
`O=C(Cn1c(-c2ccccc2)cnc(NCC2(c3ccc(F)cc3)COC2)c1=O)NCc1cc2cnccc2[nH]1` [Compound 55, N-((1H-Pyrrolo[3,2-c]pyridin-2-yl)methyl)-2-(3-(((3-(4-fluorophenyl)oxetan-3-yl)methyl)amino)-2-oxo-6-phenylpyrazin-1(2H)-yl)acetamide trifluoroacetate] came in with an inhibition constant Ki of less than 0.5 µM.
`Cc1cccc(CCNc2ncc(-c3ccccc3)n(CC(=O)NCc3cc4cnccc4[nH]3)c2=O)c1` [Compound 137, N-((1H-Pyrrolo[3,2-c]pyridin-2-yl)methyl)-2-(3-((3-methylphenethyl)amino)-2-oxo-6-phenylpyrazin-1(2H)-yl)acetamide] gave a Ki of less than 0.5 µM.
With `CC(C)(O)c1cccc(-c2cnc(NCCc3ccccc3)c(=O)n2CC(=O)NCc2cc3cnccc3[nH]2)c1` [Compound 92, N-((1H-Pyrrolo[3,2-c]pyridin-2-yl)methyl)-2-(6-(3-(2-hydroxypropan-2-yl)phenyl)-2-oxo-3-(phenethylamino)pyrazin-1(2H)-yl)acetamide] the figure was less than 0.5 µM; with `CNc1ncc(-c2ccccc2)n(CC(=O)NCc2cc3cnccc3[nH]2)c1=O` [Compound 148, N-((1H-Pyrrolo[3,2-c]pyridin-2-yl)methyl)-2-(3-(methylamino)-2-oxo-6-phenylpyrazin-1(2H)-yl)acetamide], less than 0.5 µM.
The molecule `Cc1ccc(CCNc2ncc(-c3ccccc3)n(CC(=O)NCc3cc4cnccc4[nH]3)c2=O)cc1` [Compound 138, N-((1H-Pyrrolo[3,2-c]pyridin-2-yl)methyl)-2-(3-((4-methylphenethyl)amino)-2-oxo-6-phenylpyrazin-1(2H)-yl)acetamide] gave a Ki of less than 0.5 µM.
Turning to `COc1cccc(CCNc2ncc(-c3ccccc3)n(CC(=O)NCc3cc4cnccc4[nH]3)c2=O)c1` [Compound 136, N-((1H-Pyrrolo[3,2-c]pyridin-2-yl)methyl)-2-(3-((3-methoxyphenethyl)amino)-2-oxo-6-phenylpyrazin-1(2H)-yl)acetamide], the Ki is less than 0.5 µM.
In the case of `Cc1nc(N)ccc1CNC(=O)Cn1c(-c2cccc3cnccc23)cnc(NCCc2ccccc2)c1=O` [Compound 24, N-((6-Amino-2-methylpyridin-3-yl)methyl)-2-(6-(isoquinolin-5-yl)-2-oxo-3-(phenethylamino)pyrazin-1(2H)-yl)acetamide] it was less than 0.5 µM.
Take `COc1ccccc1-c1cnc(NCCc2ccccc2)c(=O)n1CC(=O)NCc1ccc(N)nc1C` [Compound 28, N-((6-Amino-2-methylpyridin-3-yl)methyl)-2-(6-(2-methoxyphenyl)-2-oxo-3-(phenethylamino)pyrazin-1(2H)-yl)acetamide hydrochloride]: the Ki is less than 0.5 µM.
`O=C(O)CNc1ncc(-c2ccccc2)n(CC(=O)NCc2cc3cnccc3[nH]2)c1=O` [Compound 118, (4-(2-(((1H-Pyrrolo[3,2-c]Pyridin-2-yl)Methyl)Amino)-2-Oxoethyl)-3-Oxo-5-Phenyl-3,4-Dihydropyrazin-2-yl)Glycine Trifluoroacetate] registered a Ki of 0.5 to 2.5 µM.
